In patent US20070244006A1, “Fungicidal Mixtures” (priority 2004, published 2007):

What was measured:
[1] = test system: Plasmopara viticola; experiment: Activity against peronospora of grapevines caused by Plasmopara viticola, 9 day protective application; type: in vivo; details: potted vines, inoculated 9 days after treatment
Protocol: (§1) The active compounds, separately or jointly, were prepared as a stock solution comprising 0.25% by weight of active compound in acetone or DMSO. 1% by weight of the emulsifier Uniperol® EL (wetting agent having emulsifying and dispersant action based on ethoxylated alkylphenols) was added to this solution, and the mixture was diluted with water to the desired concentration.
Leaves of potted vines were sprayed to runoff point with an aqueous suspension having the concentration of active compound stated below. To be able to assess the persistency of the substances, the plants were, after the spray coating had dried on, placed in a greenhouse for 9 days. Only then were the leaves inoculated with an aqueous zoospore suspension of Plasmopara viticola. The grapevines were then initially placed in a water-vapor-saturated chamber at 24° C. for 48 hours and then in a greenhouse at temperatures between 20 and 30° C. for 5 days. After this time, the plants were again placed in a humid chamber for 16 hours, to promote sporangiophore eruption. The extent of the development of the infection on the undersides of the leaves was then determined visually.
(§2) Evaluation was carried out analogously to example 1.

[2] = test system: Venturia inaequalis; experiment: Activity against scab on apple leaves caused by Venturia inaequalis, protective application; type: in vivo; details: inoculated 12 days after treatment
Protocol: as §1
Leaves of apples were sprayed to runoff point with an aqueous suspension having the concentration of active compound stated below. After 12 days, the treated plants were inoculated with an aqueous spore suspension of Venturia inaequalis. The apples were then initially placed in a water-vapor-saturated chamber at 24° C. for 48 hours and then in a greenhouse at temperatures between 20 and 24° C. for 20 days. The extent of the development of the infection on the upper sides of the leaves was then determined visually.
The visually determined percentages of infected leaf areas were converted into efficacies in % of the untreated control:
The efficacy (E) is calculated as follows using Abbot's formula: E=(1−α/β)[…] α corresponds to the fungal infection of the treated plants in % and β corresponds to the fungal infection of the untreated (control) plants in % An efficacy of 0 means that the infection level of the treated plants corresponds to that of the untreated control plants; an efficacy of 100 means that the treated plants were not infected.
The expected efficacies of mixtures of active compounds were determined using Colby's formula (Colby, S. R. “Calculating synergistic and antagonistic responses of herbicide Combinations”, Weeds, 15, 20-22, 1967) and compared with the observed efficacies.
Colby's formula: E=x+y−x·y/100
E expected efficacy, expressed in % of the untreated control, when using the mixture of the active compounds A and B at the concentrations a and b x efficacy, expressed in % of the untreated control, when using the active compound A at the concentration a y efficacy, expressed in % of the untreated control, when using the active compound B at the concentration b

[3] = test system: Pyrenophora teres; experiment: Activity against net blotch of barley caused by Pyrenophora teres, 1 day protective application; type: in vivo, Pyrenophora [syn. Drechslera] teres; details: barley seedlings cultivar Hanna, inoculated 24 hours after treatment
Protocol: as §1
Leaves of potted barley seedlings of the cultivar “Hanna” were sprayed to runoff point with an aqueous suspension having the concentration of active compound stated below. 24 hours after the spray coating had dried on, the test plants were inoculated with an aqueous spore suspension of Pyrenophora [syn. Drechslera] teres, the net blotch pathogen. The test plants were then placed in a greenhouse at temperatures between 20 and 24° C. and at 95 to 100% relative atmospheric humidity. After 6 days, the extent of the development of the disease was determined visually in % infection of the entire leaf area.
as §2

SMILES | Efficacy in % of the untreated control ([1]; 50 ppm in the spray liquor) | Efficacy in % of the untreated control ([2]; 50 ppm in the spray liquor) | Efficacy in % of the untreated control ([3]; 3.1 ppm in the spray liquor) | further results
CC1CCN(c2c(-c3c(F)cc(F)cc3F)c(Cl)nc3ncnn23)CC1 [I-1, 5-chloro-7-(4-methylpiperidin-1-yl)-6-(2,4,6-trifluorophenyl)-[1,2,4]triazolo[1,5-a]pyrimidine] | 25% | 48% | 66% | Efficacy in % of the untreated control ([1]; 25 ppm in the spray liquor): 13%; Efficacy in % of the untreated control ([2]; 25 ppm in the spray liquor): 18%
CC(=NNC(=O)Nc1cc(F)cc(F)c1)c1ncccc1C(=O)O [diflufenzopyr (III.1), 2-{1-[4-(3,5-difluorophenyl)semicarbazono]ethyl}nicotinic acid] |  |  |  | Efficacy in % of the untreated control ([3]; 0.031 ppm in the spray liquor): 0%
CCC(=O)C1=C([O-])CC(C(=O)[O-])CC1=O.[Ca+2] (stereo not drawn) [prohexadione-Ca (IIa.1), prohexadione-Ca] | 0% | 4% |  | Efficacy in % of the untreated control ([1]; 100 ppm in the spray liquor): 0%; Efficacy in % of the untreated control ([2]; 100 ppm in the spray liquor): 29%
C[N+](C)(C)CCCl [chlormequat chloride (IIc.1), chlormequat chloride] |  |  | 0% | Efficacy in % of the untreated control ([3]; 6.3 ppm in the spray liquor): 0%
